The text below walks through data of ChEMBL document CHEMBL3596183, “Cytoprotective effects of hydrogen sulfide-releasing N-methyl-D-aspartate receptor antagonists are mediated by intracellular sulfane sulfur” (Medchemcomm, 2014).

Molecules are shown by their SMILES. The source made the active and inactive calls. No cut-off for these calls is given here.

Assay [1] has as its target Transient receptor potential cation channel subfamily A member 1 (Rattus norvegicus, UniProt Q6RI86). In words: Activation of TRPA1 in rat astrocytes assessed as induction of Ca2+ influx by calcium green-1/acetoxymethyl ester-based fluorescence assay. Format: cell-based.
Assay [2] concerns SH-SY5Y. In words: Increase in H2S level in human SH-SY5Y cells at 20 uM after 3 hrs by HSip-1 probe-based fluorescence assay. Format: functional, cell-based.

Sequence of Transient receptor potential cation channel subfamily A member 1 (Q6RI86 whole entry): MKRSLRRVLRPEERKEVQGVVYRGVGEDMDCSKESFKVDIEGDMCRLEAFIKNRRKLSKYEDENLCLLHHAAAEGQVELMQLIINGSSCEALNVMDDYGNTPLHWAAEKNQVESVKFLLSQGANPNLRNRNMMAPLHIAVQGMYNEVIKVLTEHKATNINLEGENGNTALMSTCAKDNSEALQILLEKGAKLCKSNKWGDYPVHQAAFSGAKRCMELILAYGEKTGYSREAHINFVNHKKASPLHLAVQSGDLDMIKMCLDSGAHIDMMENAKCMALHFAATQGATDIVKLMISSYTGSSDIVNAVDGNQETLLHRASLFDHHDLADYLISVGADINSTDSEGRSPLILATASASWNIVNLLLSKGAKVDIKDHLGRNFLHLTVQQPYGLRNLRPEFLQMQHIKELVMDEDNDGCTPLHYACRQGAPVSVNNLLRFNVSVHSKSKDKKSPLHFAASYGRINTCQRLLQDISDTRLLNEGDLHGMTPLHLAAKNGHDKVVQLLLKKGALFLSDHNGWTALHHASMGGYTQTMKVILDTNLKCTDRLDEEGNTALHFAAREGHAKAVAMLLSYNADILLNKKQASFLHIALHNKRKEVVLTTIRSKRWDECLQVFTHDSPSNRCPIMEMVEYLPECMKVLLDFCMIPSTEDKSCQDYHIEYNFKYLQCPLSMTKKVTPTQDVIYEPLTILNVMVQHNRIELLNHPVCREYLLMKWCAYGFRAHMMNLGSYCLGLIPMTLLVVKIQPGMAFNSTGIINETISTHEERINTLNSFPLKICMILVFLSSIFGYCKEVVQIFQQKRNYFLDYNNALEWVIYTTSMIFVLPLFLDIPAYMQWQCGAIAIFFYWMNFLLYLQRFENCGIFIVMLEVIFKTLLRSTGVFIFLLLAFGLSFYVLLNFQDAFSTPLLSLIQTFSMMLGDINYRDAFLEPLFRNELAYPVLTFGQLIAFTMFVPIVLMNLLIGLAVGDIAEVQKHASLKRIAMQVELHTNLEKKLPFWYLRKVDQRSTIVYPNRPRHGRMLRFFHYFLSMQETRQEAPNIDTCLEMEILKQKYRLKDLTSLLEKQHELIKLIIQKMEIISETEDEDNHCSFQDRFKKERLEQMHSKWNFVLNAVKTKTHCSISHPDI

As for `SSS`, in assay [1], the 50% effective concentration (EC50) (commonly the concentration needed to bring the measured effect to its halfway point) was found to be 0.091 µM.
With `CC12CC3CC(C)(C1)CC(NC(=O)c1ccc(-c4cssc4=S)cc1)(C3)C2`, the outcome in assay [2] was Active.
On to `S1SSSSSSS1` [SULFUR], for which, in assay [1], the concentration giving a half-maximal response (EC50) stood at 116 µM.
Take `O=C(NC12CC3CC(CC(C3)C1)C2)c1ccc(-c2cssc2=S)cc1`: the result in assay [2] was Active.
